Values joined by “and” are separate entries in the source; they are usually repeats but may differ in a detail not shown here. Equal entries are not always repeated.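 Protocol summary: plate cells (96-well), add compound at 5 concentrations, incubate 48 h, interpolate endpoints linearly. Abbreviation: GI50, concentration required for 50% inhibition of growth. TGI is the concentration that stops growth completely.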
What follows are compounds tested on ACHN renal (assay: NCI tumour cell line growth inhibition, 48 h).

Structure (SMILES) | TGI [µM]
C=CCn1c(=O)n(CC=C)c(=O)n(CC=C)c1=O | > 100
O=C1C(Cl)C(c2ccccc2)N1n1cnc2ccccc2c1=O (configuration not stated) | > 100
CCCCN1C=CN2c3nc4cc(C)c(C)cc4n3C(C(=O)OC)=C(C(=O)OC)C12 (configuration not stated) | > 100

These compounds were tested on HCC-2998 colon (assay: NCI tumour cell line growth inhibition, 48 h).

Structure (SMILES) | TGI [µM]
Cc1ccc2c(c1CCCC(C)(C)O)C(=O)C(=O)C(C(C)C)=C2O | > 100
C=C1C(=O)O[C@H]2[C@H]1[C@@H](OC(=O)C=C(C)C)CC1=C[C@@H](C[C@@]3(C)O[C@@H]23)OC1=O | 34.9
Cc1ccc2nc(-c3ccc(N)c(I)c3)sc2c1 | 26.4
O=c1[nH]cc(COCC(F)(F)C(F)(F)C(F)(F)C(F)F)c(=O)[nH]1 | > 100
O=C1NC(=O)C(CCO)(c2ccccc2)C(=O)N1 | > 100
COC(=O)C(=C/c1ccc(OC)cc1)/C(C(=O)O)=C(/C)c1ccccc1 | > 100
COC(=O)c1ccc(/C=C2\N=C(C)OC2=O)cc1 | > 100
Nc1ccc(C(=O)NN2C(=O)C(Cl)C2c2ccccc2Cl)cc1 (configuration not stated) | 30.1
COC(=O)C1OC(Oc2cc(O)c3c(=O)cc(-c4ccc(O)cc4)oc3c2)C(O)C(O)C1O (configuration not stated) | > 100
C=CCn1c(=O)n(CC=C)c(=O)n(CC=C)c1=O | > 100
O=C1C(Cl)C(c2ccccc2)N1n1cnc2ccccc2c1=O (configuration not stated) | > 100
CN(C)C(=O)OCOC(=O)N(C)C | > 100
CC(=O)OCC1OC(Nc2ncc(-c3ccc(C)cc3)s2)C(OC(C)=O)C(OC(C)=O)C1OC(C)=O (configuration not stated) | > 62.9
CCCCN1C=CN2c3nc4cc(C)c(C)cc4n3C(C(=O)OC)=C(C(=O)OC)C12 (configuration not stated) | > 100

The compounds below were run on U251 CNS (assay: NCI tumour cell line growth inhibition, 48 h).

Structure (SMILES) | TGI | GI50 [µM]
Cc1ccc2c(c1CCCC(C)(C)O)C(=O)C(=O)C(C(C)C)=C2O | > 100 µM | –
C=C1C(=O)O[C@H]2[C@H]1[C@@H](OC(=O)C=C(C)C)CC1=C[C@@H](C[C@@]3(C)O[C@@H]23)OC1=O | 32.2 µM and 42.5 µM | 24
Cc1ccc2nc(-c3ccc(N)c(I)c3)sc2c1 | 98.6 µM | –
O=c1[nH]cc(COCC(F)(F)C(F)(F)C(F)(F)C(F)F)c(=O)[nH]1 | > 100 µM | –
O=C1NC(=O)C(CCO)(c2ccccc2)C(=O)N1 | > 100 µM | –
Cc1ccc(C2CC(c3ccco3)=NN2c2ccccc2)o1 (configuration not stated) | > 100 µM | –
COC(=O)C(=C/c1ccc(OC)cc1)/C(C(=O)O)=C(/C)c1ccccc1 | > 100 µM | –
COC(=O)c1ccc(/C=C2\N=C(C)OC2=O)cc1 | > 100 µM | –
Nc1ccc(C(=O)NN2C(=O)C(Cl)C2c2ccccc2Cl)cc1 (configuration not stated) | 24.7 µM | –
COC(=O)C1OC(Oc2cc(O)c3c(=O)cc(-c4ccc(O)cc4)oc3c2)C(O)C(O)C1O (configuration not stated) | > 100 µM | –
C=CCn1c(=O)n(CC=C)c(=O)n(CC=C)c1=O | > 100 µM | –
O=C1C(Cl)C(c2ccccc2)N1n1cnc2ccccc2c1=O (configuration not stated) | > 100 µM | –
CN(C)C(=O)OCOC(=O)N(C)C | > 100 µM | –
CC(=O)OCC1OC(Nc2ncc(-c3ccc(C)cc3)s2)C(OC(C)=O)C(OC(C)=O)C1OC(C)=O (configuration not stated) | > 100 µM | –
CCCCN1C=CN2c3nc4cc(C)c(C)cc4n3C(C(=O)OC)=C(C(=O)OC)C12 (configuration not stated) | > 100 µM | –

These compounds were tested on HT29 colon (assay: NCI tumour cell line growth inhibition, 48 h).

Structure (SMILES) | TGI [µM]
Cc1ccc2c(c1CCCC(C)(C)O)C(=O)C(=O)C(C(C)C)=C2O | > 100
C=C1C(=O)O[C@H]2[C@H]1[C@@H](OC(=O)C=C(C)C)CC1=C[C@@H](C[C@@]3(C)O[C@@H]23)OC1=O | 12.5
Cc1ccc2nc(-c3ccc(N)c(I)c3)sc2c1 | 34.8
O=c1[nH]cc(COCC(F)(F)C(F)(F)C(F)(F)C(F)F)c(=O)[nH]1 | > 100
O=C1NC(=O)C(CCO)(c2ccccc2)C(=O)N1 | > 100
Cc1ccc(C2CC(c3ccco3)=NN2c2ccccc2)o1 (configuration not stated) | > 100
COC(=O)C(=C/c1ccc(OC)cc1)/C(C(=O)O)=C(/C)c1ccccc1 | > 100
COC(=O)c1ccc(/C=C2\N=C(C)OC2=O)cc1 | > 100
Nc1ccc(C(=O)NN2C(=O)C(Cl)C2c2ccccc2Cl)cc1 (configuration not stated) | 23.5
COC(=O)C1OC(Oc2cc(O)c3c(=O)cc(-c4ccc(O)cc4)oc3c2)C(O)C(O)C1O (configuration not stated) | > 100
O=C1C(Cl)C(c2ccccc2)N1n1cnc2ccccc2c1=O (configuration not stated) | > 100
CN(C)C(=O)OCOC(=O)N(C)C | > 100
CC(=O)OCC1OC(Nc2ncc(-c3ccc(C)cc3)s2)C(OC(C)=O)C(OC(C)=O)C1OC(C)=O (configuration not stated) | > 100
CCCCN1C=CN2c3nc4cc(C)c(C)cc4n3C(C(=O)OC)=C(C(=O)OC)C12 (configuration not stated) | > 100

Each compound was assayed on SW-620 colon (assay: NCI tumour cell line growth inhibition, 48 h).

Structure (SMILES) | TGI [µM]
Cc1ccc2c(c1CCCC(C)(C)O)C(=O)C(=O)C(C(C)C)=C2O | > 100
C=C1C(=O)O[C@H]2[C@H]1[C@@H](OC(=O)C=C(C)C)CC1=C[C@@H](C[C@@]3(C)O[C@@H]23)OC1=O | 2.77
Cc1ccc2nc(-c3ccc(N)c(I)c3)sc2c1 | 57.8
O=c1[nH]cc(COCC(F)(F)C(F)(F)C(F)(F)C(F)F)c(=O)[nH]1 | > 100
O=C1NC(=O)C(CCO)(c2ccccc2)C(=O)N1 | > 100
Cc1ccc(C2CC(c3ccco3)=NN2c2ccccc2)o1 (configuration not stated) | > 100
COC(=O)C(=C/c1ccc(OC)cc1)/C(C(=O)O)=C(/C)c1ccccc1 | > 100
COC(=O)c1ccc(/C=C2\N=C(C)OC2=O)cc1 | > 100
Nc1ccc(C(=O)NN2C(=O)C(Cl)C2c2ccccc2Cl)cc1 (configuration not stated) | 10.7
COC(=O)C1OC(Oc2cc(O)c3c(=O)cc(-c4ccc(O)cc4)oc3c2)C(O)C(O)C1O (configuration not stated) | > 100
C=CCn1c(=O)n(CC=C)c(=O)n(CC=C)c1=O | > 100
O=C1C(Cl)C(c2ccccc2)N1n1cnc2ccccc2c1=O (configuration not stated) | > 100
CN(C)C(=O)OCOC(=O)N(C)C | > 100
CC(=O)OCC1OC(Nc2ncc(-c3ccc(C)cc3)s2)C(OC(C)=O)C(OC(C)=O)C1OC(C)=O (configuration not stated) | > 100
CCCCN1C=CN2c3nc4cc(C)c(C)cc4n3C(C(=O)OC)=C(C(=O)OC)C12 (configuration not stated) | > 100

The compounds below were run on COLO 205 colon (assay: NCI tumour cell line growth inhibition, 48 h).

Structure (SMILES) | TGI | GI50
Cc1ccc2c(c1CCCC(C)(C)O)C(=O)C(=O)C(C(C)C)=C2O | > 100 µM | –
C=C1C(=O)O[C@H]2[C@H]1[C@@H](OC(=O)C=C(C)C)CC1=C[C@@H](C[C@@]3(C)O[C@@H]23)OC1=O | 2.49 µM and 4.17 µM | 0.993 µM and 2.27 µM
Cc1ccc2nc(-c3ccc(N)c(I)c3)sc2c1 | 30.9 µM | –
O=c1[nH]cc(COCC(F)(F)C(F)(F)C(F)(F)C(F)F)c(=O)[nH]1 | > 100 µM | –
O=C1NC(=O)C(CCO)(c2ccccc2)C(=O)N1 | > 100 µM | –
Cc1ccc(C2CC(c3ccco3)=NN2c2ccccc2)o1 (configuration not stated) | > 100 µM | –
COC(=O)C(=C/c1ccc(OC)cc1)/C(C(=O)O)=C(/C)c1ccccc1 | > 100 µM | –
COC(=O)c1ccc(/C=C2\N=C(C)OC2=O)cc1 | > 100 µM | –
Nc1ccc(C(=O)NN2C(=O)C(Cl)C2c2ccccc2Cl)cc1 (configuration not stated) | 28.1 µM | –
COC(=O)C1OC(Oc2cc(O)c3c(=O)cc(-c4ccc(O)cc4)oc3c2)C(O)C(O)C1O (configuration not stated) | > 100 µM | –
C=CCn1c(=O)n(CC=C)c(=O)n(CC=C)c1=O | > 100 µM | –
O=C1C(Cl)C(c2ccccc2)N1n1cnc2ccccc2c1=O (configuration not stated) | > 100 µM | –
CN(C)C(=O)OCOC(=O)N(C)C | > 100 µM | –
CC(=O)OCC1OC(Nc2ncc(-c3ccc(C)cc3)s2)C(OC(C)=O)C(OC(C)=O)C1OC(C)=O (configuration not stated) | > 100 µM | –

What follows are compounds tested on IGROV1 ovarian (assay: NCI tumour cell line growth inhibition, 48 h).

Structure (SMILES) | TGI | GI50 [µM]
Cc1ccc2c(c1CCCC(C)(C)O)C(=O)C(=O)C(C(C)C)=C2O | > 100 µM | –
C=C1C(=O)O[C@H]2[C@H]1[C@@H](OC(=O)C=C(C)C)CC1=C[C@@H](C[C@@]3(C)O[C@@H]23)OC1=O | 27 µM and 34.4 µM | 14.2
O=c1[nH]cc(COCC(F)(F)C(F)(F)C(F)(F)C(F)F)c(=O)[nH]1 | > 100 µM | –
O=C1NC(=O)C(CCO)(c2ccccc2)C(=O)N1 | > 100 µM | –
Cc1ccc(C2CC(c3ccco3)=NN2c2ccccc2)o1 (configuration not stated) | > 100 µM | –
COC(=O)C(=C/c1ccc(OC)cc1)/C(C(=O)O)=C(/C)c1ccccc1 | > 100 µM | –
COC(=O)c1ccc(/C=C2\N=C(C)OC2=O)cc1 | > 100 µM | –
Nc1ccc(C(=O)NN2C(=O)C(Cl)C2c2ccccc2Cl)cc1 (configuration not stated) | 26.4 µM | –
COC(=O)C1OC(Oc2cc(O)c3c(=O)cc(-c4ccc(O)cc4)oc3c2)C(O)C(O)C1O (configuration not stated) | > 100 µM | –
C=CCn1c(=O)n(CC=C)c(=O)n(CC=C)c1=O | > 100 µM | –
O=C1C(Cl)C(c2ccccc2)N1n1cnc2ccccc2c1=O (configuration not stated) | > 100 µM | –
CN(C)C(=O)OCOC(=O)N(C)C | > 100 µM | –
CC(=O)OCC1OC(Nc2ncc(-c3ccc(C)cc3)s2)C(OC(C)=O)C(OC(C)=O)C1OC(C)=O (configuration not stated) | > 100 µM | –
CCCCN1C=CN2c3nc4cc(C)c(C)cc4n3C(C(=O)OC)=C(C(=O)OC)C12 (configuration not stated) | > 100 µM | –
